Assays:
Aβ40 = Aβ40 (Homo sapiens, UniProt P05067); assay: ThT Aβ aggregation assay (kinetic Thioflavin T fluorescence); format: biochemical; settings: 20 μM Aβ, DMSO control at 80 hr = 0% inhibition, number in parenthesis = compound ID 1027 in that experiment; for inhibition at 10 µM: read-out: % inhib Thioflavin T Aβ 40 10 μM; for inhibition at 5 µM: 80 h, read-out: % inhib Thioflavin T Aβ 40 (5 μm)
Description: Preparation of Aβ40 Stock Solutions
Aβ40 (1.0 mg) was pre-treated in a 1.5 mL microfuge tube with HFIP (1 mL) and sonicated for 20 min to disassemble any pre-formed Aβ aggregates. The HFIP was removed with a stream of argon and the Aβ dissolved in Tris base (5.8 mL, 20 mM, pH ˜10). The pH was adjusted to 7.4 with concentrated HCl (˜10 μL) and the solution filtered using a syringe filter (0.2 μm) before being used.
The kinetic ThT assay for Aβ aggregation is similar to that of Chalifour et al (Chalifour et al, 2003, J. Biol. Chem. 278:34874-81). Briefly, pre-treated Aβ40 or Aβ42 (40 μM in 20 mM Tris, pH 7.4) was diluted with an equal volume of 8 μM Thioflavin T (ThT) in Tris (20 mM, pH 7.4, 300 mM NaCl). Aliquots of Aβ/ThT (200 μL) were added to wells of a black polystyrene 96-well plate, followed by 2 μL of a compound in DMSO (variable concentration), or DMSO alone (controls). Incubations were performed in triplicate and were taken to contain 20 μM Aβ, various concentration of compound in 20 mM Tris, pH 7.4, 150 mM NaCl, 1% DMSO. Plates were covered with clear polystyrene lids and incubated at 37° C. in a Tecan Genios microplate reader.
Analysis of ThT and ThS Aggregation Assays
Fluorescence readings (λex=450 nm, λem=480 nm) were taken every 15 min., after first shaking at high intensity for 15 s and allowing to settle for 10 s before each reading. Active compounds attenuated the increase in fluorescence over time that occurred in controls. In FIGS. 1-7, the time this procedure was performed extended to 80 hours (rightmost part of X-axis), at which point fluorescence increase generally reached an asymptote. Applying a definition of DMSO control at 80 hr as 100% aggregation (0% inhibition) and DMSO control at 0 hr as 0% aggregation (100% inhibition), a % inhibition score where higher is better can be calculated for a given concentration of compound. By repeating this procedure over several concentrations, a […] (IC50) can be measured, as is given in the table below for some compounds.

[1] = molecular target: Terminally biotinylated beta-amyloid (Aβ42) (Homo sapiens, UniProt P05067); assay: Aβ42 biotinylated (biotin-AB) oligomerization assay, NeutrAvidin capture ELISA; format: biochemical; settings: approximate value; 1 hr oligomerization at room temperature; read-out: IC50 Aβ 42-bio
Procedure, shortened: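 Biotin-Aβ42, pretreated with HFIP/TFA to remove seeds, oligomerized 1 h at room temperature with compound in 20 mM sodium phosphate pH 7.5, 150 mM NaCl (DMSO up to 1%). Oligomers captured on NeutrAvidin plates, detected with streptavidin-HRP/TMB at 450 nm; IC50 approximate, in µM.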

[2] = compound 5 μm (so in the source)

Sequence of Aβ40 (P05067 672-711, species assumed): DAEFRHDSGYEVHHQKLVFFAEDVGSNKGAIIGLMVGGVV
Sequence of Terminally biotinylated beta-amyloid (Aβ42) (P05067 672-713, species assumed): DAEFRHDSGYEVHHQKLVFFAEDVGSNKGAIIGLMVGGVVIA

Structure (SMILES)	inhibition at 10 µM (Aβ40; compound 10 μM) [%]	IC50 [1] [µM]	inhibition at 5 µM (Aβ40; [2]) [%]	% inhib Thioflavin T Aβ 40 10 μM (Aβ40; compound 10 μM) [%]	% inhib Thioflavin T Aβ 40 (5 μm) (Aβ40; [2]) [%]
CS(=O)(=O)N1CC=C(c2cc(N3CC(CN4CCCC4)C3)c3nonc3c2)CC1 [compound 1518]	35	> 20			
COCCN1CC=C(c2cc(N3CC(CN4CCCC4)C3)c3nonc3c2)CC1 [compound 1519]	53	8.2			
OC(c1cc(N2CC(CN3CCCC3)C2)c2nonc2c1)C(F)(F)F (stereo not shown) [compound 1520]	46	6.1			
CC(=O)N1CCC=C(c2cc(N3CC(CN4CCCC4)C3)c3nonc3c2)C1 [compound 1521]	20	30.1			
CS(=O)(=O)N1CCC=C(c2cc(N3CC(CN4CCCC4)C3)c3nonc3c2)C1 [compound 1522]	44	10.1			
COCCN1CCC=C(c2cc(N3CC(CN4CCCC4)C3)c3nonc3c2)C1 [compound 1523]	55	1.3			
CN1CCC=C(c2cc(N3CC(CN4CCCC4)C3)c3nonc3c2)C1 [compound 1524]	61	14.9			
c1cc(-c2cc(N3CC(CN4CCCC4)C3)c3nonc3c2)n[nH]1 [compound 1525]	63	13.2			
c1n[nH]cc1-c1cc(N2CC(CN3CCCC3)C2)c2nonc2c1 [compound 1526]	60	5.8			
Cn1cc(-c2cc(N3CC(CN4CCCC4)C3)c3nonc3c2)cn1 [compound 1527]	49	7.5			
c1cc(-c2cc(N3CC(CN4CCCC4)C3)c3nonc3c2)ccn1 [compound 1528]	50	7.8			
c1csc(-c2cc(N3CC(CN4CCCC4)C3)c3nonc3c2)c1 [compound 1529]	74	9			
c1coc(-c2cc(N3CC(CN4CCCC4)C3)c3nonc3c2)c1 [compound 1530]	79	10.5			
CN(C)C(=O)c1cccc(-c2cc(N3CC(CN4CCCC4)C3)c3nonc3c2)c1 [compound 1531]	45	2.7			
CSc1ccccc1-c1cc(N2CC(CN3CCCC3)C2)c2nonc2c1 [compound 1532]	68	27.1			
CS(=O)(=O)N1C=C(c2cc(N3CC(CN4CCCC4)C3)c3nonc3c2)CCC1 [compound 1533]	35	5.6			
CC(=O)N1C=C(c2cc(N3CC(CN4CCCC4)C3)c3nonc3c2)CCC1 [compound 1534]	67	3.5			
OC(c1cc(-c2cc(N3CC(CN4CCCC4)C3)c3nonc3c2)cs1)C(F)(F)F (stereo not shown) [compound 1535]	77	2.9	71		
Cn1nccc1-c1cc(N2CC(CN3CCCC3)C2)c2nonc2c1 [compound 1536]	61	4.2	43		
OC(c1cc(-c2cc(N3CC(CN4CCCC4)C3)c3nonc3c2)cs1)C(F)(F)F (stereo not shown) [compound 1537]		3.5		74	71
O=C(c1cc(N2CC(CN3CCCC3)C2)c2nonc2c1)N1CCOCC1 [compound 1538]	54	2.9	47		
COC(c1cc(N2CC(CN3CCCC3)C2)c2nonc2c1)C(F)(F)F (stereo not shown) [compound 1539]	55	7.8	53		
CCN(CC)C(=O)c1cc(N2CC(CN3CCCC3)C2)c2nonc2c1 [compound 1540]	50	1.8	41		
O=C(NC1CC1)c1cc(N2CC(CN3CCCC3)C2)c2nonc2c1 [compound 1541]	31	4	19		
CN(C)C(=O)c1ccccc1-c1cc(N2CC(CN3CCCC3)C2)c2nonc2c1 [compound 1542]	36	> 20	15		
OC(c1ccc(-c2cc(N3CC(CN4CCCC4)C3)c3nonc3c2)s1)C(F)(F)F (stereo not shown) [compound 1543]	84	1.1	63		

Source: patent US9938249B2, “Anti-amyloid compounds containing benzofurazan” (Treventis Corporation, priority 2014, dated 2018)
